{"source": "paper PMC9222373", "about": "(2022)"}
{"system": "Apt-5 (unlabelled) (DNA, aptamer) AGCAGCACAGAGGTCAGATGGGATGTGAGGTGGCTCTCGTATCTATAGATTTTGGCGAGACCTATGCGTGCTACCGTGAA", "assay": "AuNP aggregation colorimetry", "conditions": "NaCl added after incubation (75 mM optimised); 37 °C, 1 h; 10 ng/mL toxin; 200 nM aptamer stock; insignificant colour change"}
{"smiles": "C[C@H]1CCCC(=O)CCC/C=C/c2cc(O)cc(O)c2C(=O)O1", "binding": "no"}
{"smiles": "C[C@@H]1Cc2c(Cl)cc(C(=O)N[C@@H](Cc3ccccc3)C(=O)O)c(O)c2C(=O)O1", "binding": "no"}
{"smiles": "CCCC[C@@H](C)[C@@H](OC(=O)C[C@@H](CC(=O)O)C(=O)O)[C@H](C[C@@H](C)C[C@H](O)CCCC[C@@H](O)C[C@H](O)[C@H](C)N)OC(=O)C[C@@H](CC(=O)O)C(=O)O", "binding": "no"}
